Measured values reported in patent US20210253518A1, “KINASE INHIBITOR” (NISSAN CHEMICAL CORPORATION, priority 2018, published 2021).
Read-outs that look alike come from different tables or passages of the source.

Assays:
[1] = tested on: YAP protein; assay: Imaging analysis of nuclear translocation in SKOV3 cells; type: cell-based, human; conditions: 10 μM, 4 hr, ratio of fluorescence intensity nucleus/cytoplasm, no addition 6.15
Method: Compounds k-1:B-1, k-1:H-1, and k-1:J-1 were evaluated for nuclear translocation of YAP protein and TAZ protein. For the nuclear translocation, imaging analysis was performed using the human ovarian cancer cell line SKOV3 (manufactured by DS Pharma Biomedical Co., Ltd) and OperettaCLS (manufactured by PerkinElmer) described below. The compounds were added such that the final concentration of the test concentration of k-1:B-1, k-1:H-1, and k-1:J-1 was 10 μM.
Human ovarian cancer cell line SKOV3 cultured according to the protocol recommended by DS Pharma Biomedical Co., Ltd. was seeded on a 96-well plate (manufactured by PerkinElmer, CellCarrier-Ultra) at 15,000 cells/90 μL/well on the cycloolefin bottom surface, and cultured in a CO2 incubator (37° C., 5% CO2) for 1 day. After culturing, 10 μL of k-1:B-1, k-1:H-1, and k-1:J-1 solutions having a concentration of 100 μM and dissolved in DMSO was added. The cells were further cultured in a CO2 incubator at 37° C. for 4 hr. The medium was exchanged with 4% para-formaldehyde, and the cells were fixed by allowing to stand at room temperature for 10 min. The fixed cells were subjected to immunostaining with AlexaFluor® 647-labeled YAP antibody (manufactured by Cell Signaling Technology), anti-mouse TAZ (D-8) antibody (manufactured by SantaCruz), AlexaFluor® 555-labeled anti-mouse IgG antibody (manufactured by Thermo Fisher Scientific), according to the recommended protocol produced by Cell Signaling Technology, and the cell nucleus was further stained with 10 μg/mL Hoechst33342 solution.
Nine fields of view were imaged per well using a 20× objective lens of Operatta CLS. The cell nucleus region and the cytoplasm region were identified from the obtained fluorescence images by using the analysis software Harmony (manufactured by PerkinElmer), and AlexaFluor® 647 fluorescence intensity per unit area and the AlexaFluor® 555 fluorescence intensity per unit area in each region were extracted. The nuclear translocation was evaluated by calculating the ratio of the fluorescence intensity of the cell nucleus region to the fluorescence intensity of the cytoplasmic region from the extracted values. The value becomes greater than 1 as the YAP protein and TAZ protein transfer into the cell nucleus, and less than 1 when localized in the cytoplasm.
The specific compound used in the present invention was evaluated for the nuclear translocation of YAP protein and TAZ protein. For the nuclear translocation, imaging analysis was performed using the human ovarian cancer cell line SKOV3 (DS Pharma Biomedical Co., Ltd) and OperettaCLS (PerkinElmer) described below. The specific compound was added such that the final concentration of the test concentration of the compound used in the present invention was 10 μM.
Human ovarian cancer cell line SKOV3 cultured according to the protocol recommended by DS Pharma Biomedical Co., Ltd. was seeded on a 96-well plate (PerkinElmer, CellCarrier-Ultra) at 15,000 cells/90 μL/well on the cycloolefin bottom surface, and cultured in a CO2 incubator (37° C., 5% CO2) for 1 day. After culturing, a solution of the specific compound used in the present invention dissolved in DMSO was added. The cells were further cultured in a CO2 incubator at 37° C. for 4 hr, the medium was exchanged with 4% para-formaldehyde, and the cells were fixed by allowing to stand at room temperature for 10 min. The fixed cells were subjected to immunostaining with AlexaFluor® 647-labeled YAP antibody (Cell Signaling Technology), anti-mouse TAZ (D-8) antibody (SantaCruz), AlexaFluor® 555-labeled anti-mouse IgG antibody (Thermo Fisher Scientific), according to the recommended protocol produced by Cell Signaling Technology, and the cell nucleus was further stained with 10 μg/mL Hoechst33342 solution.
Nine fields of view were imaged per well using a 20× objective lens of Operatta CLS. […]

[2] = target: p70S6K (Homo sapiens, UniProt P23443); assay: Off-chip Mobility Shift Assay (MSA method), kinase inhibition; type: biochemical; conditions: for inhibition at 0.1 µM: read-out: inhibition (%) p70S6K
Method: (§1) For compound k-1:B-1, inhibitory activity evaluation (calculation of 50% inhibitory concentration (IC50)) was performed on 8 kinds of kinases (CGK2, LATS2, MSK1, p70S6K, PKACα, PKACβ, SGK2, SGK3). The activity was measured using the Off-chip Mobility Shift Assay (MSA method) described below. The compound was added such that the test concentration of k-1:B-1 was in 10 steps from the final concentration of 10 μM to 0.3 nM.
(§2) As an analysis method of the data, the mean signal of the control well containing all reaction components was set to 0% inhibition, the mean signal without enzyme addition was set to 100% inhibition, and the inhibition rate was calculated from the mean signal of 2 wells of each test substance test. The IC50 value was obtained by approximating a plot based on the test substance concentration and inhibition rate to a 4 parameter logistics curve by using the Excel Solver add-in and by the non-linear least squares method.
(§3) 5 μL of k-1:B-1 solution at 4-fold concentration, 5 μL of substrate/ATP/metal solution at 4-fold concentration, and 10 μL of kinase solution at 2-fold concentration, each prepared with assay buffer (20 mM HEPES, 0.01% Triton X-100, 2 mM DTT, pH 7.5), were mixed in the wells of a polypropylene 384-well plate and reacted at room temperature for 1 or 5 hr. Successively, 70 μL of Termination Buffer (QuickScout Screening Assist MSA; Carna Biosciences) was added to discontinue the reaction. Then, the substrate peptide and the phosphorylated peptide in the reaction solution were separated and quantified by the LabChip system (Perkin Elmer). The kinase reaction was evaluated by the resultant product ratio (P/(P+S)) calculated from the substrate peptide peak height (S) and the phosphorylated peptide peak height (P).
(§4) For compounds k-1:H-7, k-1:H-1, k-1:D-1, k-1:J-1, and k-1:B-1, inhibitory rate at 100 nM was calculated on 8 kinds of kinases (CGK2, LATS2, MSK1, p70S6K, PKACα, PKACβ, SGK2, SGK3). The activity was measured using the MSA method. As an analysis method of the data, the mean signal of the control well containing all reaction components was set to 0% inhibition, the mean signal without enzyme addition was set to 100% inhibition, and the inhibition rate was calculated from the mean signal of 2 wells of each test substance test.
as §3, with “a compound” for “k-1:B-1”

[3] = target: PKACα (Homo sapiens, UniProt P17612); assay: as above; type: biochemical; conditions: for inhibition at 0.1 µM: read-out: inhibition (%) PKACα
Method: as §1, §2, §3, §4
as §3, with “a compound” for “k-1:B-1”

[4] = target: MSK1 (Homo sapiens, UniProt O75582); assay: as above; type: biochemical; conditions: for inhibition at 0.1 µM: read-out: inhibition (%) MSK1
Method: as §1, §2, §3, §4
as §3, with “a compound” for “k-1:B-1”

[5] = MSA method, 10 steps from 10 μM to 0.3 nM

Sequence of p70S6K (P23443 whole entry): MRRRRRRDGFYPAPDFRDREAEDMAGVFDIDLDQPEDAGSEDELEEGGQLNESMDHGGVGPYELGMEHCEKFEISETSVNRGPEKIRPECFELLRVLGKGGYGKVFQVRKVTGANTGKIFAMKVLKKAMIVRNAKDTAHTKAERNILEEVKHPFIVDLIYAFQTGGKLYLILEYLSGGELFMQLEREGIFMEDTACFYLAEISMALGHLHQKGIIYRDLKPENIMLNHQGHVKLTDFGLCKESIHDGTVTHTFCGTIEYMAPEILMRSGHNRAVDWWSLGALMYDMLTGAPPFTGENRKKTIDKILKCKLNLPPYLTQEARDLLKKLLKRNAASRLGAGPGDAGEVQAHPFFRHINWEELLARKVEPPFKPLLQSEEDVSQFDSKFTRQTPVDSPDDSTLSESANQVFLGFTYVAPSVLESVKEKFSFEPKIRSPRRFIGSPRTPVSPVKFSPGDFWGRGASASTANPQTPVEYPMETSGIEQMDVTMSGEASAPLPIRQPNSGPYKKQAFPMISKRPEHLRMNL
Sequence of MSK1 (O75582 whole entry): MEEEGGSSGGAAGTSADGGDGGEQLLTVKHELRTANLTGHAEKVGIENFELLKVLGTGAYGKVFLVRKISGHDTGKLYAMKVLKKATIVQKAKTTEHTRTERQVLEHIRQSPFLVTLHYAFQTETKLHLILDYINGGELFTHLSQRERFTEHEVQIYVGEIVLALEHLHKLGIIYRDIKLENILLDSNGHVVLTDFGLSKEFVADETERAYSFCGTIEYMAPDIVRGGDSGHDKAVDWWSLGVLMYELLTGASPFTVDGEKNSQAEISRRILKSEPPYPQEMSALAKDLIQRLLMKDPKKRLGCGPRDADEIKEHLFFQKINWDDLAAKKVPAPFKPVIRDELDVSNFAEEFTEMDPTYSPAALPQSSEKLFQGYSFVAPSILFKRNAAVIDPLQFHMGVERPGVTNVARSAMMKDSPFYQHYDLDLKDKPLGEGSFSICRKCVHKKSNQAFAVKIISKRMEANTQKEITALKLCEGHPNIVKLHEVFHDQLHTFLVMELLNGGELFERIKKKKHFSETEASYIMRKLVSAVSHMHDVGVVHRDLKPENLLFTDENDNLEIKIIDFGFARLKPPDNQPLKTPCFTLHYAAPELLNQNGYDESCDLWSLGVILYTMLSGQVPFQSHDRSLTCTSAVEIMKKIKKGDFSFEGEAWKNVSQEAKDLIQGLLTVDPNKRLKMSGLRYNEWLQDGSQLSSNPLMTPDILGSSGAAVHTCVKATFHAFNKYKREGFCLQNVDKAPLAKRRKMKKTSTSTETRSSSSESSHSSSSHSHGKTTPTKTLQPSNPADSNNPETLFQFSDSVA

In the case of `CC/C(=N\NC(=O)C(C)Nc1ccccc1)c1ccc(O)c(C)c1O` (stereo not drawn) [k-1:B-1], the “YAP nuclear translocation rate” value [1] is reported as 6.98, the IC50 [2, 5] is reported as 41.5 nM and the inhibition at 0.1 µM ([2]; at 100 nM, MSA method) is reported as 67.6%. The IC50 [3, 5] was 23.4 nM, the inhibition at 0.1 µM ([3]; at 100 nM, MSA method) was 82.8% and the IC50 [4, 5] was 17.4 nM. For the same molecule, the inhibition at 0.1 µM ([4]; at 100 nM, MSA method) was 87.7%.
Work on `CC/C(=N\NC(=O)CNc1cccc(O)c1)c1ccc(O)c(C)c1O` [k-1:D-1] yielded an inhibition at 0.1 µM [2] of 97.9%, an inhibition at 0.1 µM [3] of 99.7% and an inhibition at 0.1 µM [4] of 101%.
With `CCC(=NNC(=O)CNc1ccccc1)c1ccc(O)c(C)c1O` [k-1:H-1] the “YAP nuclear translocation rate” value [1] was 7.60, the inhibition at 0.1 µM ([2]; at 100 nM, MSA method) was 82% and the inhibition at 0.1 µM ([3]; at 100 nM, MSA method) was 92.1%. It also gave an inhibition at 0.1 µM ([4]; at 100 nM, MSA method) of 99.7%.
With `CCC(=NNC(=O)C(CC)Nc1ccccc1)c1ccc(O)c(C)c1O` (stereo not drawn) [k-1:H-7] the inhibition at 0.1 µM ([2]; at 100 nM, MSA method) was 70.3%, the inhibition at 0.1 µM ([3]; at 100 nM, MSA method) was 77.7% and the inhibition at 0.1 µM ([4]; at 100 nM, MSA method) was 94.9%.
In the case of `CC/C(=N\NC(=O)NCc1cccc(O)c1)c1ccc(O)c(C)c1O` [k-1:J-1], the “YAP nuclear translocation rate” value [1] is reported as 7.92, the inhibition at 0.1 µM [2] is reported as 78.3% and the inhibition at 0.1 µM [3] is reported as 94%. It also gave an inhibition at 0.1 µM [4] of 99.6%.
